The source of these data is US8927501B2, “αvβ6 peptide ligands and their uses” (priority 2005, dated 2015).

In general, IC50 refers to the point on the concentration scale where inhibition reaches its midpoint. Higher therefore signals a need for much substance.

One assay concerns the target rsαvβ6 (Homo sapiens, UniProt P06756+P18564). The assay can be described thus: biochemical. It counts as binding.
Assay [1] deals with T1, αvβ6 (Homo sapiens, UniProt P06756+P18564).
T1 construct: endogenous in cells; host or cells: VB6 human oral squamous cell carcinoma
The assay is described as follows: Cell adhesion assay: αvβ6-dependent adhesion of VB6 cells to LAP. It counts as cell-based.

Assay [2] concerns the target αvβ6 (UniProt P18564+P43406). The assay is described as follows: cell-based. More on the design: species or system mouse.

Chain of αvβ6 (UniProt P18564+P43406) (P43406 31-1044 limits assumed): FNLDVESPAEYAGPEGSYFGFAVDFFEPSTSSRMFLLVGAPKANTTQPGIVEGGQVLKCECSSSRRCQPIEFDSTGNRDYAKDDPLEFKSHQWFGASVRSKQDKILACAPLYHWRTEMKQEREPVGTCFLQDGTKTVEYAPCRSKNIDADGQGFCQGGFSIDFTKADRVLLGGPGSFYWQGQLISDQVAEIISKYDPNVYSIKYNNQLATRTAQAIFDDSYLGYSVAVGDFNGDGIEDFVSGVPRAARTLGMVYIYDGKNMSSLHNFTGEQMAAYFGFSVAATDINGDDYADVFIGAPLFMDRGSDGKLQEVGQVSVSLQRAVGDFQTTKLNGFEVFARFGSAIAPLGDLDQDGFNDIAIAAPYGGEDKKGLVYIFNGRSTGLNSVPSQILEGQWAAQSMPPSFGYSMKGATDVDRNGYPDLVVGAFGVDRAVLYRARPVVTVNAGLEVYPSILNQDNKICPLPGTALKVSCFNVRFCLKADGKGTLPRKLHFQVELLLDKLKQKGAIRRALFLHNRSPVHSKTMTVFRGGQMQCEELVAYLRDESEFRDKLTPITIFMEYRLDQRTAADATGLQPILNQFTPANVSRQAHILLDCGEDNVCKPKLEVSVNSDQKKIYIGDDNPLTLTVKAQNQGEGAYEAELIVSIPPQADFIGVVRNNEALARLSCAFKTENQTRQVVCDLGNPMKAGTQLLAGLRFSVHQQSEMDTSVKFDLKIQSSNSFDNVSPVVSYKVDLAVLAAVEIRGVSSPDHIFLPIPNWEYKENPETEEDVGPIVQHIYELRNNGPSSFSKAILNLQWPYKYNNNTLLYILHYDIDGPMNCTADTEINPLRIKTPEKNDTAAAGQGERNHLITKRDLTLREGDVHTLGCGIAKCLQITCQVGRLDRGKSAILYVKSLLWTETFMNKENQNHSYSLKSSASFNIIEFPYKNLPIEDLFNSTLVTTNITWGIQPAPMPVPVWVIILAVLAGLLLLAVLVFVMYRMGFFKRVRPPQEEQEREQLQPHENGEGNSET
Chain of αvβ6 (UniProt P18564+P43406) (P18564 22-788 limits assumed): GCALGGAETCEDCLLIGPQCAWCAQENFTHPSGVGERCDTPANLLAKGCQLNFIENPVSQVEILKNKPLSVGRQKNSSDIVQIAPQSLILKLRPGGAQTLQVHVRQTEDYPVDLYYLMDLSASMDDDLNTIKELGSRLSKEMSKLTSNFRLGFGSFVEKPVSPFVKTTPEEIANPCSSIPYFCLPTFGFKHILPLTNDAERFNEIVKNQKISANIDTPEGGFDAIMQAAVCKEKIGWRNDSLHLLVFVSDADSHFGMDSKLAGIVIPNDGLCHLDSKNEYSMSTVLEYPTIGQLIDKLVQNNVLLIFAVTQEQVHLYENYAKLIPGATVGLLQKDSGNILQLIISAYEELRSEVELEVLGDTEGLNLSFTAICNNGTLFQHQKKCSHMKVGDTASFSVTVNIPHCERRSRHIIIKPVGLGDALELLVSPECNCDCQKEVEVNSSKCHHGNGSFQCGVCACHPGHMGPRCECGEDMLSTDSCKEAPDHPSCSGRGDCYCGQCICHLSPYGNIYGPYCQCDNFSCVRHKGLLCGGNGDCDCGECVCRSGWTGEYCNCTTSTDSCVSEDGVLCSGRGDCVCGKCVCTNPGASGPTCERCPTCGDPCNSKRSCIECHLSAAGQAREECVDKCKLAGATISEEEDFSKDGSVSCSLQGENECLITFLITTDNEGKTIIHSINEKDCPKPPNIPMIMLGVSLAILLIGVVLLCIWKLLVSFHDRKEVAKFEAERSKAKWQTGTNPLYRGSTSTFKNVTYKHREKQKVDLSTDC
T1 sequence (P06756 31-1048): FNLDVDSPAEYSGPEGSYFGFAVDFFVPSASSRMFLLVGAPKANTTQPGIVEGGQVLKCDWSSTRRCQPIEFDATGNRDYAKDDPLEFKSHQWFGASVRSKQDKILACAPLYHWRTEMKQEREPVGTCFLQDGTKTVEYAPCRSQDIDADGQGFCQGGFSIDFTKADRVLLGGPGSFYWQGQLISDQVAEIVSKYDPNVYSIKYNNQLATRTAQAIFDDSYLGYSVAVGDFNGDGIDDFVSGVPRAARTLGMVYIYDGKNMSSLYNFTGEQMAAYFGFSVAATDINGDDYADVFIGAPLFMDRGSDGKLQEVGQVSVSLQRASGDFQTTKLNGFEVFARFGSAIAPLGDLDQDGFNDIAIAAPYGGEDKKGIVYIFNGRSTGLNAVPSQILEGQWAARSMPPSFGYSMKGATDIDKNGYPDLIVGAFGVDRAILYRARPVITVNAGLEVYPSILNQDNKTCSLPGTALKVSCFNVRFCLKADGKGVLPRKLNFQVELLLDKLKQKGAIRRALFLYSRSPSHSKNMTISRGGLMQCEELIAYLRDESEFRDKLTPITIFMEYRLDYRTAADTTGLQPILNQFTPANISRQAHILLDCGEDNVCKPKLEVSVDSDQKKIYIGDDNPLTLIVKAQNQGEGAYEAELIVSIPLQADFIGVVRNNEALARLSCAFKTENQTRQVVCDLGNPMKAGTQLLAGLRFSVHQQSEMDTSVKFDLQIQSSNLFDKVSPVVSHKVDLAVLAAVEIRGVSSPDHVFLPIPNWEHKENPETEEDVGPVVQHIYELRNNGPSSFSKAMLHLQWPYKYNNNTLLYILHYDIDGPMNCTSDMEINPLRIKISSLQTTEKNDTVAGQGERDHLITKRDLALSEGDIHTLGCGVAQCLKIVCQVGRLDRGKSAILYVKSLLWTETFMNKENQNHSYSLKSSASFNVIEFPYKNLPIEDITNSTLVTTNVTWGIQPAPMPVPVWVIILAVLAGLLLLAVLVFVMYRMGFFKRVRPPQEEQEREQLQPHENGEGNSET
T1 sequence (P18564 22-788): as the sequence (P18564 22-788 limits assumed) above
Chain of rsαvβ6 (P06756 31-992 limits assumed): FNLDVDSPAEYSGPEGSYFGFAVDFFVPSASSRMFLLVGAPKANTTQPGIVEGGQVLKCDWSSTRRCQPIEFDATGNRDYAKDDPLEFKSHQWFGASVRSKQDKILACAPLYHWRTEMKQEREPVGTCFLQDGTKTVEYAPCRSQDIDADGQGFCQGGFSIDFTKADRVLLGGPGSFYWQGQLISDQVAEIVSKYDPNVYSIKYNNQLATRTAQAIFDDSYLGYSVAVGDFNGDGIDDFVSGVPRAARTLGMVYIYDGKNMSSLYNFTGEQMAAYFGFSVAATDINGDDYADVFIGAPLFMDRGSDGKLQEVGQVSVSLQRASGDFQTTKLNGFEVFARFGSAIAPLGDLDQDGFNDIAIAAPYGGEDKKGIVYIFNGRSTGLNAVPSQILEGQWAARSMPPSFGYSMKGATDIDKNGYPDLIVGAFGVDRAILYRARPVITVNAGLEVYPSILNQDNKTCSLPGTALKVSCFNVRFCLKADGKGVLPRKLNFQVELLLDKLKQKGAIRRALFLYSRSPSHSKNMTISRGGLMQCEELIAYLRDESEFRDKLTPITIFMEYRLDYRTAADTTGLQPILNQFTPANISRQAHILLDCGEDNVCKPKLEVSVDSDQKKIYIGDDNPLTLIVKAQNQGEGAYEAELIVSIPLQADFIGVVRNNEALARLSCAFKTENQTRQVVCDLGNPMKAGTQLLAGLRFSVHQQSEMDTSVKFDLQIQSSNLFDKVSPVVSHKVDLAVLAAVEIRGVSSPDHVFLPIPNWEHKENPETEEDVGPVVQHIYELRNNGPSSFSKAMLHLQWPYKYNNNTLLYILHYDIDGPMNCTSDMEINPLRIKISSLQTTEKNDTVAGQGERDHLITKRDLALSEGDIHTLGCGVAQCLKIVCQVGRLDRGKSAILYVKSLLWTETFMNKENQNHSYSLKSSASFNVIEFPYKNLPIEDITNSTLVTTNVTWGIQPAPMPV
Chain of rsαvβ6 (P18564 22-709 limits assumed): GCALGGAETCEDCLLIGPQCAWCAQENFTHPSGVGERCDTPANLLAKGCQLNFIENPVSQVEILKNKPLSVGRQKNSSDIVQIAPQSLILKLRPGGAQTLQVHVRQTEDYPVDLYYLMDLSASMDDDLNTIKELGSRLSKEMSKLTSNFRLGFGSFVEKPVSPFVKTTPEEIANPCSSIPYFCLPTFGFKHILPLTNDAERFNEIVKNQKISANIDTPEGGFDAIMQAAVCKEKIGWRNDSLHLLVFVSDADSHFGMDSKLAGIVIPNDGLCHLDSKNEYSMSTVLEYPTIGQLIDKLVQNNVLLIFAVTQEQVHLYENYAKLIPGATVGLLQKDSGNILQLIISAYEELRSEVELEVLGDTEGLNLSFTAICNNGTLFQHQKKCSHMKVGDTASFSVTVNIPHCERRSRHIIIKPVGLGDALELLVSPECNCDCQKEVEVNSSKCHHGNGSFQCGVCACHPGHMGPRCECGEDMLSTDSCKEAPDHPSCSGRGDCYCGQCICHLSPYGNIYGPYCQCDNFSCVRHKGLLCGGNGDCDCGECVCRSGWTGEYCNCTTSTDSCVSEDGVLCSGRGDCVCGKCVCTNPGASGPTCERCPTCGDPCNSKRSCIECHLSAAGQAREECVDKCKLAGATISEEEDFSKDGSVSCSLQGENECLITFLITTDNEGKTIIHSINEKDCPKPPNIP

Turning to `CC(C)C[C@H](NC(=O)[C@H](CC(=O)O)NC(=O)CNC(=O)[C@H](CCCNC(=N)N)NC(=O)[C@H](CC(C)C)NC(=O)[C@H](CC(N)=O)NC(=O)[C@@H]1CCCN1C(=O)[C@@H](N)C(C)C)C(=O)N[C@@H](CCC(N)=O)C(=O)N[C@H](C(=O)N[C@@H](CC(C)C)C(=O)N[C@@H](C)C(=O)O)C(C)C` [DD19], the IC50 on rsαvβ6 is 0.085 µM; at αvβ6 [2], 190 µM. For the same compound, at αvβ6 [1], the “VB6 adhesion to LAP in the presence of peptide” value was “the same as adhesion in the absence of peptide”.
